What all share (type): cell-based
For test [1], the system named is U2OS or MCF7 cells. The experiment in a line: Cell survival assay, YW-1842 alone. Particulars: concentration below 5 μM/L. The procedure: FIGS. 6F-6G show TRDMT1 inhibitor YW-1842 delays the repair of DSBs at the transcribed genome. (FIG. 6F) U2OS or MCF7 cells were treated with or without compound YW-1842 at the indicated concentration. The survival rate of these cells was shown (n=3, Mean±SD). (FIG. 6G) SCE WT cells were transfected with TA-KR and were cultured with […] YW-1842 or not for 6 hours, γ-H2AX (n=3, 50 cells per replicated, Mean±SD) were stained and quantified.
Approximately 500 U2OS/TRDMT1 KO U2OS/MCF-7/HCC1954/HCC1937 cells and TRDMT1 siRNA or GFP-TRDMT1 WT/G155V/K251R transfected cells were seeded in 6 cm dish with or without TRDMT1 inhibitors (2.5 μM/L). 6 hrs after seeding, cells were exposed to cisplatin (1134357, Sigma, 1 μM/L), ATMi (KU55933, C9867, Sigma, 1 μM/L), ATRi (AZ20, 57050, Selleck, 1 μM/L) or PARPi (Olaparib, AZD2461, Sigma, 1 μM/L) at indicated concentration or ionizing radiation (IR). After 7-14 days, colonies were fixed and stained with 0.3% crystal violet in methanol, and the number of colonies was counted manually.

Test [2] concerns U2OS (EJ5-GFP) cells. Put plainly: EJ5-GFP NHEJ reporter assay. As to conditions: 2.5 μM/L, 6 h pre-treatment, TRDMT1 wild type cells. As to the method: (§1) FIGS. 6A-6E show TRDMT1 Inhibitors specifically sensitizes cells to DNA damage agents. (FIG. 6A) SCE WT cells were transfected with TA-KR and were cultured with 2.5 μM/L compound YW-1842 or not for 6 hours, m^5C (n=3, 50 cells per replicated, Mean±SD) was stained and quantified. DR-GFP (FIG. 6B) or EJ5-GFP (FIG. 6C) cells were pre-treated with 2.5 μM/L compound YW-1842 for 6 h or TRDMT1 siRNA for 48 h, or DMSO. Then the cells were transfected with NLS-I-SceI plasmid to induce DSB. The efficiency of HR (FIG. 6B) or NHEJ (FIG. 6C) was analyzed by flow-cytometry (n=3, Mean f SD). (FIG. 6D) After seeding, MCF-7, HCC1954, and HCC1937 cells were pre-treated with or without 2.5 μM/L compound YW-1842 for 6 h, then cultured with chemotherapy drugs (1 μM/L Cisplatin; 1 μM/L ATRi AZ20; […]; 1 μM/L PARPi Olaparib for 10 days. The survival rate of these cells was analyzed (n=3, Mean±SD). (FIG. 6E) TRDMT1 KO U2OS cells were transfected with GFP-TRDMT1^WT or GFP-TRDMT1^G155V with or without 2.5 μM/L compound YW-1842, the survival rate of these cells after IR or Cisplatin was shown (n=3, Mean±SD).
(§2) Using a previously described method[Lan, L. et al. The ACF1 complex is required for DNA double-strand break repair in human cells. […] The GFP signal arising from the recombination (HR) or non-homologous end joining (NHEJ) events were measured by flow cytometry.
A general note: A reporter such as luciferase makes a cellular process visible.

Test [3] concerns TRDMT1 KO U2OS cells. The experiment in a line: Cell survival assay in TRDMT1 KO cells after IR or Cisplatin. Particulars: 2.5 μM/L. The procedure: as §1
Approximately 500 U2OS/TRDMT1 KO U2OS/MCF-7/HCC1954/HCC1937 cells and TRDMT1 siRNA or GFP-TRDMT1 WT/G155V/K251R transfected cells were seeded in 6 cm dish with or without TRDMT1 inhibitors (2.5 μM/L). […]

For test [4], the system named is U2OS (DR-GFP) cells. The experiment in a line: DR-GFP HR reporter assay. As to conditions: 2.5 μM/L, 6 h pre-treatment, versus DMSO. The procedure: as §1, §2
For test [5], the system named is γ-H2AX foci. Put plainly: γ-H2AX foci clearance after damage. As to conditions: 2.5 μM/L YW-1842, cells after IR. As to the method: FIGS. 6F-6G show TRDMT1 inhibitor YW-1842 delays the repair of DSBs at the transcribed genome. (FIG. 6F) U2OS or MCF7 cells were treated with or without compound YW-1842 at the indicated concentration. […]
Cells for immunofluorescence observation were fixed in 4% PFA (Affymetrix, 19943 1 LT) at room temperature for 15 min and further treated with 0.2% triton for 10 min. They were then blocked by 3% BSA (SIGMA, A-7030) at room temperature for 1 h. Primary antibody for RAD51(ab63801, Abcam, 1:200)), RAD52(sc-365341, Santa Cruz, CA, USA, 1:500), TRIM28 (ab10484, Abcam, 1:500), γH2AX ser139 (JBW301, 05-636, EMD Millipore, 1:200), were incubated with cells at 4° C. overnight. After washing with 0.05% PBS-Tween (PBST), the cells were incubated with secondary antibody for 1 h at room temperature.

As to `COc1cc2nc(-n3cc(-c4ccc(S(C)(=O)=O)cc4)cn3)nc(-c3ccsc3)c2cc1OC` [YW-1842, 6,7-dimethoxy-2-(4-(4-(methylsulfonyl)phenyl)-1H-pyrazol-1-yl)-4-(thiophen-3-yl)quinazoline], the antiproliferative effect entry in test [1] was “did not prohibit cell proliferation”. Further, in test [2], the “non-homologous end joining (NHEJ) efficiency” value is “no obvious changes”. For the same molecule, in test [3], the “sensitization of TRDMT1 KO cells to IR or Cisplatin” value is recorded as “does not sensitize TRDMT1 KO”. The “HR-mediated repair of I-SceI-generated DSBs (DR-GFP)” value in test [4] was “diminished the repair of I-SceI-generated DSBs”. Further, the “DNA repair efficiency, clearance of γ-H2AX foci” value in test [5] is reported as “delayed clearance of γ-H2AX foci”.

The record behind these values is patent US12667568B2, “Compositions and methods for the treatment and diagnosis of cancer” (The General Hospital Corporation, priority 2020, dated 2026).
